Key:
Cyclin D1 [1] = test: Cyclin D1 expression by immunoblotting in harvested xenografts; type: in vivo, human; settings: decoy alone, p=0.0022
Experimental: (§1) Immunoblotting. Whole cell extracts were mixed with 2× sodium dodecyl sulfate (SDS) sample buffer (125 mmol/L Tris-HCL, pH 6.8; 4% SDS; 20% glycerol; 10% 2 mercaptoethanol) at 1:1 ratio and were heated for 5 min at 100° C. Proteins (50 μg/lane) were separated by 12.5% SDS-PAGE and transferred onto a nitrocellulose membrane (MSI; Westboro, Mass). Prestained molecular weight markers (GIBCO BRL; Gaithersburg, MD) were included in each gel. Membranes were blocked for 30 min in Tris-buffered saline (TBS: 10 mmol/L Tris-HCL, pH 7.5 and 150 mmol/L NaCl) with 0.5% Tween-20 (TBST) and 5% BSA. After blocking, membranes were incubated with a primary antibody; rabbit anti-human VEGF polyclonal antibody, rabbit anti-human Cyclin D1 polyclonal antibody, mouse anti-human Bcl-xL monoclonal antibody, or rabbit anti-human PCNA polyclonal antibody (Santa Cruz Biotechnology, Santa Cruz, Calif.), in TBST and 1% BSA. […] Quantification of Cyclin D1 and Bcl-xL was performed by using a Molecular Dynamics Personal Densitometer SI and IMAGEQUANT software (Image Products International, Chantilly, Va.). Immunoblotting bands were quantified by densitometry and the Molecular Analyst software (AlphaDigidoc 1000, Alpho-Innotech) with normalization of each band to their corresponding loading control (Xi, S., et al. J Biol Chem, 278: 31574-31583, 2003). […]

STAT5 = STAT5 activation by EMSA in harvested xenografts; type: in vivo; settings: xenografts after 25 treatments; specificity
p53-responsive element = test: p53-Luciferase reporter gene assay in UM-22B SCCHN cells; type: cell-based; settings: UM-22B p53-Luc, 2 μg transfected, 24 hrs
Experimental: FIG. 8 depicts the inhibition of reporter gene expression from a p53-responsive element in SCCHN cells. An SCCHN cell line, UM-22B, was used to generate a stable cell line expressing a p53-Luciferase (p53-Luc) reporter gene (The p53-Luc plasmid carrying 14 repeats of p53 transcription recognition sequence: 5'-[…] ID NO: 30)), was obtained from Stratagene, Catalog number: 219085-51). The cells were transfected with 2 μg of the STAT3 decoy or the control mutant decoy. At 24 hrs after transfection, luciferase (Luc) activity was measured and normalized to the total amount of protein according to standard methods.

[2] = tested on: normal mucosal epithelial cells; settings: cited from earlier work
Cyclin D1 [3] = test: Cyclin D1 expression by immunoblotting in SCCHN cells in vitro; type: cell-based, human; settings: 1483 cells; 25 μM, 6 days; p<0.0001
Experimental: as §1, with “BSA.” for “BSA. After blocking, membranes were incubated with a primary antibody; rabbit anti-human VEGF polyclonal antibody, rabbit anti-human Cyclin D1 polyclonal antibody, mouse anti-human Bcl-xL monoclonal antibody, or rabbit anti-human PCNA polyclonal antibody (Santa Cruz Biotechnology, Santa Cruz, Calif.), in TBST and 1% BSA.”
As shown above, treatment with the STAT3 decoy abrogates STAT3 target gene expression in vivo. […] The data were analyzed using parametric analysis of variance of a two-way factorial design. […]

STAT3 decoy (sense CATTTCCCGTAAATC; antisense GATTTACGGGAAATG; phosphorothioate modified, further chemistry not given here; listed as Homo sapiens)
Cyclin D1 expression levels compared with mutant control decoy (Cyclin D1 [1]): significant effect | STAT5 activation (STAT5): no abrogation | p53 reporter activity (p53-responsive element): specifically interfere | toxicity to normal mucosal epithelial cells [2]: lack toxicity | Cyclin D1 expression compared with mutant control decoy (Cyclin D1 [3]): decreased

From patent publication US20060293264A1, “STAT3 decoy oligonucleotides and uses therefor” (priority 2004, published 2006)
